What is called EC50 is the concentration at which the effect is half-maximal.

Structures are written as SMILES. Where only a bound is given, the exact number is not on record here.

In the experiment the target is T1, mAChR M1 (UniProt P08482).
T1 sequence (P08482 1-460): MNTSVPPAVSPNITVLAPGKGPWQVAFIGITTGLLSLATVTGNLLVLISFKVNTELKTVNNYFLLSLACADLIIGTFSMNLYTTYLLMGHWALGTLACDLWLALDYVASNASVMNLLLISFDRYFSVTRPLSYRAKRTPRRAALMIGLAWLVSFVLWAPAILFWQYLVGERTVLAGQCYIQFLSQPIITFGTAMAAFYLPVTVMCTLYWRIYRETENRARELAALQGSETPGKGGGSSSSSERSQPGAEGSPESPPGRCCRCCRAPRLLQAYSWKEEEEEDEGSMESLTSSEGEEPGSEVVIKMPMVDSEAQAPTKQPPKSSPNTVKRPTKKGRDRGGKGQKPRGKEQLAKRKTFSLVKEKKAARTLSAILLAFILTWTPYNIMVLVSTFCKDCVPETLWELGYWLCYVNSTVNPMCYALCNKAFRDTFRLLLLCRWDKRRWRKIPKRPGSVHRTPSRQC
The experiment is described as follows: mAChR M1 cell-based functional assay (calcium mobilization, Fluo-4, FDSS). Particulars: for EC50: positive allosteric modulation of EC20 acetylcholine response, CHO-K1 cells expressing mAChR M1, read-out: Potency (EC50); for Efficacy (% ACh maximum at 30 μM): maximal calcium flux response from curve fit or response at 30 μM compound, as % of the EC80 ACh response. The protocol: Chinese hamster ovary (CHO-K1) cells stably expressing rat (r)M1 were purchased from the American Type Culture Collection and cultured according to their indicated protocol. […] To make stable rM2, hM2, rM3, hM4, and rM4 cell lines for use in calcium mobilization assays, these cells also were stably transfected with a chimeric G-protein (Gqi5) (provided by B. R. Conklin, University of California, San Francisco) using Lipofectamine 2000. rM1, hM1, rM3, hM3, rM5, and hM5 cells were grown in Ham's F-12 medium containing 10% heat-inactivated fetal bovine serum (FBS), 20 mM HEPES, and 50 μg/mL G418 sulfate. rM2-Gqi5, hM2-Gqi5, and hM4-Gqi5 cells were grown in the same medium also containing 500 μg/mL Hygromycin B. Stable rM4-Gqi5 cells were grown in DMEM containing 10% heat-inactivated FBS, 20 mM HEPES, 400 μg/mL G418 sulfate, and 500 μg/mL Hygromycin B.
For high throughput measurement of agonist-evoked increases in intracellular calcium, CHO-K1 cells stably expressing muscarinic receptors were plated in growth medium lacking G418 and hygromycin at 15,000 cells/20 μL/well in Greiner 384-well black-walled, tissue culture (TC)-treated, clear-bottom plates (VWR). Cells were incubated overnight at 37° C. and 5% CO2. […] Compound master plates were formatted in an 11 point CRC format (1:3 dilutions) in 100% DMSO with a starting concentration of 10 mM using the BRAVO liquid handler (Agilent). Test compound CRCs were then transferred to daughter plates (240 nL) using the Echo acoustic plate reformatter (Labcyte, Sunnyvale, Calif.) and then diluted into assay buffer (40 μL) to a 2× stock using a Thermo Fisher Combi (Thermo Fisher Scientific, Waltham, Mass.).
Calcium flux was measured using the Functional Drug Screening System (FDSS) 6000 (Hamamatsu Corporation, Tokyo, Japan) as an increase in the fluorescent static ratio. Compounds were applied to cells (20 μL, 2×) using the automated system of the FDSS 6000 at 4 s into the 300 s protocol and the data were collected at 1 Hz. […] Agonist activity was analyzed as a concentration-dependent increase in calcium mobilization upon compound addition. Positive allosteric modulator activity was analyzed as a concentration-dependent increase in the EC20 acetylcholine response. Antagonist activity was analyzed as a concentration-dependent decrease in the EC80 acetylcholine response. Concentration-response curves were generated using a four-parameter logistical equation in XLfit curve fitting software (IDBS, Bridgewater, N.J.) for Excel (Microsoft, Redmond, Wash.) or Prism (GraphPad Software, Inc., San Diego, Calif.).
The calcium mobilization assay was also used to determine “efficacy”. In the context of the assays carried out for the data in Table I, “efficacy” (% ACh at 30 μM) is defined as the maximal response in the calcium flux as determined by the sigmoidal curve fit of the concentration response curve, or in the absence of an acceptable curve fit, the response recorded at 30 μM test compound, stated as a percentage of the response elicited by a concentration of Ach that induces approximately 80% of a maximal (i.e. saturating) ACh response.
(A change in cytosolic calcium serves as a functional read-out for many receptors and channels.)

As to `Cc1cc(NC(=O)CS(=O)(=O)c2cn(Cc3ccc4c(c3)OCO4)c3ccccc23)no1` [compound 50, 2-[1-(2H-1,3-benzodioxol-5-ylmethyl)-1H-indole-3-sulfonyl]-N-(5-methyl-1,2-oxazol-3-yl)acetamide], the EC50 is above 10 µM.
As for `O=C(CS(=O)(=O)c1cn(Cc2cccc(Br)c2)c2cc(F)cc(F)c12)Nc1cccnn1` [compound 7, 2-((1-(3-bromobenzyl)-4,6-difluoro-1H-indol-3-yl)sulfonyl)-N-(pyridazin-3-yl)acetamide], the “Efficacy (% ACh maximum at 30 μM)” value came out at 63% and the EC50 was 2.4 µM.
Regarding `O=C(CS(=O)(=O)c1cn(Cc2cccc(-c3cccnc3F)c2)c2cc(F)cc(F)c12)Nc1ccccn1` [compound 24, 2-((4,6-difluoro-1-(3-(2-fluoropyridin-3-yl)benzyl)-1H-indol-3-yl)sulfonyl)-N-(pyridin-2-yl)acetamide], the “Efficacy (% ACh maximum at 30 μM)” value amounted to 38% and the EC50 came to 4.4 µM.
For `O=C(CS(=O)(=O)c1cn(Cc2cccc(Br)c2)c2cc(F)cc(F)c12)Nc1cncs1` [compound 38, 2-((1-(3-bromobenzyl)-4,6-difluoro-1H-indol-3-yl)sulfonyl)-N-(thiazol-5-yl)acetamide], the “Efficacy (% ACh maximum at 30 μM)” value was 49% and the EC50 is above 10 µM.
With `Cc1cc(NC(=O)CS(=O)(=O)c2cn(Cc3cccc(-c4ccc(N5CCNCC5)nc4)c3)c3ccccc23)no1` [compound 70, N-(5-methyl-1,2-oxazol-3-yl)-2-[1-({3-[6-(piperazin-1-yl)pyridin-3-yl]phenyl}methyl)-1H-indole-3-sulfonyl]acetamide], the EC50 was above 10 µM.
The same measure, in the same setting: for `Cc1cc(NC(=O)CSc2c[nH]c3ccccc23)no1` [compound 41, 2-(1H-indol-3-ylsulfanyl)-N-(5-methyl-1,2-oxazol-3-yl)acetamide] the value was above 10 µM.
Take `Cc1cc(NC(=O)CS(=O)(=O)c2cn(Cc3cccc(-c4cnn(CC(C)C)c4)c3)c3ccccc23)no1` [compound 65, N-(5-methyl-1,2-oxazol-3-yl)-2-[1-({3-[1-(2-methylpropyl)-1H-pyrazol-4-yl]phenyl}methyl)-1H-indole-3-sulfonyl]acetamide]: the EC50 was above 10 µM.
`Cc1cc(NC(=O)CS(=O)(=O)c2cn(Cc3ccc(F)c(-c4cc[nH]n4)c3)c3ccccc23)no1` [compound 58, 2-(1-{[4-fluoro-3-(1H-pyrazol-3-yl)phenyl]methyl}-1H-indole-3-sulfonyl)-N-(5-methyl-1,2-oxazol-3-yl)acetamide]: the EC50 is above 10 µM.
For `Cc1cc(NC(=O)C(Cc2cccc(Cl)c2)S(=O)(=O)c2cn(Cc3cccc(Cl)c3)c3ccccc23)no1` (centres unmarked) [compound 69, 3-(3-chlorophenyl)-2-{1-[(3-chlorophenyl)methyl]-1H-indole-3-sulfonyl}-N-(5-methyl-1,2-oxazol-3-yl)propanamide], the concentration for a half-maximal effect (EC50) was above 10 µM.
Consider `O=C(CS(=O)(=O)c1cn(Cc2cccc(Br)c2)c2cc(F)cc(F)c12)Nc1nc2ccccc2o1` [compound 9, N-(benzo[d]oxazol-2-yl)-2-((1-(3-bromobenzyl)-4,6-difluoro-1H-indol-3-yl)sulfonyl)acetamide], for which the “Efficacy (% ACh maximum at 30 μM)” value was 44% and the EC50 worked out at 2.5 µM.
As to `Cc1cc(NC(=O)C(Cc2ccc(OC(F)(F)F)cc2)S(=O)(=O)c2cn(Cc3ccc(OC(F)(F)F)cc3)c3ccccc23)no1` (centres unmarked) [compound 74, N-(5-methyl-1,2-oxazol-3-yl)-3-[4-(trifluoromethoxy)phenyl]-2-(1-{[4-(trifluoromethoxy)phenyl]methyl}-1H-indole-3-sulfonyl)propanamide], the EC50 is above 10 µM.
For `COc1ccc(-c2cccc(Cn3cc(S(=O)(=O)CC(=O)Nc4ccccn4)c4c(F)cc(F)cc43)c2)cn1` [compound 16, 2-((4,6-difluoro-1-(3-(6-methoxypyridin-3-yl)benzyl)-1H-indol-3-yl)sulfonyl)-N-(pyridin-2-yl)acetamide], the “Efficacy (% ACh maximum at 30 μM)” value is on record as 42% and the half-maximal effective concentration (EC50) amounted to 3.3 µM.

For the origin of these results see patent publication US8772509B2, “Indole compounds as positive allosteric modulators of the muscarinic receptor” (Vanderbilt University, priority 2010, dated 2014).
